“Also recorded” adds a separate entry of the source.
What was measured:
[1] = test system: MYC mRNA in MM cell lines; conditions: reported; cited from earlier work
[2] = test system: SMZL cell lines; assay: MTT proliferation assay; type: cell-based, human; conditions: three SMZL cell lines
Protocol: (§1) The activity of Formula 2 was evaluated in four mantle cell lymphoma (MCL), ten diffuse large B-cell lymphoma (DLBCL) established human cell lines, a set of multiple myeloma (MM) cell lines, three splenic marginal zone lymphoma (SMZL) cell lines and eight anaplastic large T-cell lymphoma (ALCL) cell lines. Cells were exposed to increasing doses of the compound for 72 hours.
(§2) The proliferation assay was performed using the following procedure. Cells were seeded into 96-well plates at the density of 104 per well. Formula 2 (Oncoethix SA, Lausanne, Switzerland) was dissolved in DMSO as a stock solution of 10 mM and divided in aliquots stored at −80° C. For each experiment, an aliquot of the stock solution was thawed and used within 2 to 3 days. Formula 2 was serially diluted in tissue culture media, added to cells (in five replicates) and incubated for 72 hours at 37° C. Control cells were treated with equal amounts of DMSO. The 3-(4,5-dimethylthiazol-2-yl)-2,5-diphenyltetrazolium bromide (MTT) (Sigma, Buchs, Switzerland) was prepared as a stock of 5 mg/mL in phosphate-buffered saline (PBS) and filter-sterilized. […] Cells were then lysed with 25% sodium dodecylsulfate (SDS) lysis buffer and absorbance was read at 570 nm on a Beckman Coulter-AD340 instrument. […]
The activity of Formula 2 was also evaluated in SMZL cell lines using the procedures described in Example 1. […]

[3] = test system: NFκB target genes in DLBCL cell lines; assay: NFκB target gene expression; type: cell-based, human; conditions: two DLBCL cell lines
Protocol: (§3) RNA was extracted using the RNA easy kit (Qiagen AG, Hombrechtikon, Switzerland). The concentration of total RNA was determined spectrophotometrically at 260 nm using a NanoDrop spectrometer (NanoDrop Technologies, Wilmington, Del., USA). One microgram of total RNA was reverse-transcribed using the Superscript First-Strand Synthesis System for real-time PCR kit (Invitrogen, Karlsruhe, Germany) according to the manufacturer's instructions. PCR amplification was performed using Fast SYBR Green Master Mix on a StepOnePlus real-time PCR System (Applied Biosystems, Foster City, Calif., USA). Primer sets (Table 2) were designed using the Primer3 software package (Rozen, S., Skaletsky, H. Primer3 on the WWW for general users and for biologist programmers. In: Misener, S., Krawetz, S. A., Eds. Methods in Molecular Biology, Vol. 132: Bioinformatics Methods and Protocols. Totowa, N.J., USA: Humana Press Inc., 2000, pp. 365-386). All samples were analyzed in triplicate. The relative quantity of the specific mRNA for each sample was calculated based on mean cycle threshold (Ct) values using the delta-delta Ct with a correction for experimental variations by normalization to the housekeeping gene GAPDH.
BRD4 co-activates transcriptional activation of NF-B via specific binding to acetylated ReIA. […]

[4] = test system: MM cell lines; assay: % Annexin V positive cells; type: cell-based, human; conditions: doses at IC50, 24 hours
Protocol: FIG. 18 illustrates the % Annexin V positive cells obtained after doses of Formula 2 at IC50 and 24 hours.

[5] = test system: c-MYC mRNA in DLBCL cell lines; assay: c-MYC mRNA levels, real-time PCR; type: cell-based, human
Protocol: as §3

[6] = test system: c-MYC in ALCL cell lines; assay: c-MYC mRNA levels, real-time PCR; type: cell-based, human; conditions: 8 and 24 hours of treatment
Protocol: as §3
FIGS. 25A-25E illustrate c-MYC levels in ALCL cell lines after 8 hours of treatment with Formula 2. FIG. 26 illustrates c-MYC levels in ALCL cell lines after 24 hours of treatment with Formula 2.

[7] = test system: SU-DHL-2; assay: MTT proliferation assay, 72 h; type: cell-based; conditions: Homo sapiens, SU-DHL-2 (DLBCL), read-out: estimated IC50
Protocol: as §1
(§4) The proliferation assay was performed using the following procedure. Cells were seeded into 96-well plates at the density of 104 per well. Formula 2 (Oncoethix SA, Lausanne, Switzerland) was dissolved in DMSO as a stock solution of 10 mM and divided in aliquots stored at −80° C. For each experiment, an aliquot of the stock solution was thawed and used within 2 to 3 days. Formula 2 was serially diluted in tissue culture media, added to cells (in five replicates) and incubated for 72 hours at 37° C. Control cells were treated with equal amounts of DMSO. The 3-(4,5-dimethylthiazol-2-yl)-2,5-diphenyltetrazolium bromide (MTT) (Sigma, Buchs, Switzerland) was prepared as a stock of 5 mg/mL in phosphate-buffered saline (PBS) and filter-sterilized. An amount of MTT solution equal to 0.5 mg/mL was then added to each well and incubated in the dark at 37° C. for 4 hours. Cells were then lysed with 25% sodium dodecylsulfate (SDS) lysis buffer and absorbance was read at 570 nm on a Beckman Coulter-AD340 instrument. Three independent experiments were run for each cell line. The doses corresponding to the IC50 were estimated by fitting a sigmoidal model through the dose response curve using the R statistical package (R: A Language and Environment for Statistical Computing, R Foundation for Statistical Computing, Vienna, Austria).

[8] = test system: SU-DHL-7; assay: MTT proliferation assay, 72 h; type: cell-based; conditions: Homo sapiens, SU-DHL-7 (DLBCL), read-out: estimated IC50
Protocol: as §1, §4

[9] = test system: Rec-1; assay: MTT proliferation assay, 72 h; type: cell-based; conditions: Homo sapiens, Rec1, Rec-1 (MCL), read-out: estimated IC50
Protocol: as §1, §4

[10] = test system: Granta-519; assay: MTT proliferation assay, 72 h; type: cell-based; conditions: Homo sapiens, Granta-519 (MCL), read-out: estimated IC50
Protocol: as §1, §4

[11] = test system: Karpass 422; assay: MTT proliferation assay, 72 h; type: cell-based; conditions: Homo sapiens, Karpass 422 (DLBCL), read-out: estimated IC50
Protocol: as §1, §4

[12] = test system: OCI-Ly7; assay: MTT proliferation assay, 72 h; type: cell-based; conditions: Homo sapiens, OCI-Ly7 (DLBCL), read-out: estimated IC50
Protocol: as §1, §4

[13] = test system: U-2932; assay: MTT proliferation assay, 72 h; type: cell-based; conditions: Homo sapiens, U2932, U-2932 (DLBCL), read-out: estimated IC50
Protocol: as §1, §4

[14] = test system: MAVER-1; assay: MTT proliferation assay, 72 h; type: cell-based; conditions: Homo sapiens, Maver1, MAVER-1 (MCL), read-out: estimated IC50
Protocol: as §1, §4

[15] = test system: U266; assay: MTT proliferation assay, 72 h; type: cell-based; conditions: Homo sapiens, U-266, U266 (MM), read-out: estimated IC50
Protocol: as §1, §4

[16] = test system: SU-DHL-5; assay: MTT proliferation assay, 72 h; type: cell-based; conditions: Homo sapiens, SU-DHL-5 (DLBCL), read-out: estimated IC50
Protocol: as §1, §4

[17] = test system: SU-DHL-6; assay: MTT proliferation assay, 72 h; type: cell-based; conditions: Homo sapiens, SU-DHL-6 (DLBCL), read-out: estimated IC50
Protocol: as §1, §4

[18] = test system: JeKo-1; assay: MTT proliferation assay, 72 h; type: cell-based; conditions: Homo sapiens, JeKo-1 (MCL), read-out: estimated IC50
Protocol: as §1, §4

[19] = test system: MM1S; assay: MTT proliferation assay, 72 h; type: cell-based; conditions: Homo sapiens, MM1.S, MM1S (MM), read-out: estimated IC50
Protocol: as §1, §4

[20] = test system: DoHH2; assay: MTT proliferation assay, 72 h; type: cell-based; conditions: Homo sapiens, DOHH-2, DoHH2 (DLBCL), read-out: estimated IC50
Protocol: as §1, §4

[21] = test system: SU-DHL-4; assay: MTT proliferation assay, 72 h; type: cell-based; conditions: Homo sapiens, SU-DHL-4 (DLBCL), read-out: estimated IC50
Protocol: as §1, §4

[22] = test system: RPMI8226; assay: MTT proliferation assay, 72 h; type: cell-based; conditions: Homo sapiens, RPMI-8226, RPMI8226 (MM), read-out: estimated IC50
Protocol: as §1, §4

[23] = test system: ALCL cell lines; assay: MTT proliferation assay; type: cell-based, human; conditions: eight ALCL cell lines
Protocol: as §1, §2
The activity of Formula 2 was also evaluated in ALCL cell lines using the procedures described in Example 1. […]

[24] = test system: DLBCL cell lines; assay: Cell cycle analysis, flow cytometry; type: cell-based, human; conditions: five DLBCL cell lines, 24 h
Protocol: (§5) Cell cycle analysis was performed using the following procedure. Cells were treated with DMSO or different doses of Formula 2 for 24 hours, harvested and washed once in PBS and then fixed in 80% ethanol at 4° C. for at least one hour. Cells were stained with propidium iodide (PI 50 μg/ml, Sigma) in PBS containing RNAse-A (75 kU/ml, Sigma) and analyzed for DNA content using a FACScan flow cytometer (Becton Dickinson). Cell cycle analysis was performed using the ModFit LT software package (Verity Software House, Inc., Topsham, Me., USA).
Not having observed the induction of massive cell death despite the important effect on cell viability, the effect of Formula 2 on the cell cycle was investigated (FIG. 6). […] FIG. 7 illustrates representative flow cytometry profiles of untreated control cells and SU-DHL-6 cells treated for 24 hours with 0.2 in μM of Formula 2.

[25] = test system: DLBCL cell lines; assay: Cell death, propidium iodide flow cytometry; type: cell-based, human; conditions: 24 and 72 hours, 0.1-15 μM; SU-DHL-2 and DoHH2
Protocol: Cell death was evaluated as follows. […], harvested and washed once in PBS and then stained with propidium iodide (PI 1 μg/ml, Sigma) in PBS and analyzed using a FACScan flow cytometer (Becton Dickinson, Mountain View, Calif., USA). The analysis of the percentage of cell death was performed using CellQuest Pro software (Becton Dickinson).

[26] = test system: DLBCL cell lines; assay: MTT proliferation assay, 72 h; type: cell-based, human; conditions: for IC50: Homo sapiens
Protocol: as §1, §4

[27] = test system: MM cell lines; assay: MTT proliferation assay, 72 h; type: cell-based, human; conditions: all MM cell lines
Protocol: as §1, §4

[28] = test system: VAL; assay: MTT proliferation assay, 72 h; type: cell-based, human
Protocol: as §1, §4

[29] = test system: MCL cell lines; assay: MTT proliferation assay, 72 h; type: cell-based, human; conditions: three MCL cell lines
Protocol: as §1, §4

[30] = test system: MM cell lines; assay: Cell death, propidium iodide flow cytometry; type: cell-based, human
Protocol: Cell death was evaluated as follows. Cells were treated with DMSO or different doses of Formula 2 for 72 hours, harvested and washed once in PBS and then stained with propidium iodide (PI 1 μg/ml, Sigma) in PBS and analyzed using a FACScan flow cytometer (Becton Dickinson, Mountain View, Calif., USA). The analysis of the percentage of cell death was performed using CellQuest Pro software (Becton Dickinson).
(§6) The activity of Formula 2 was also evaluated in MM cell lines. […] All the BRD factors were expressed (FIG. 14).

[31] = test system: MYC mRNA in MM cell lines; assay: MYC mRNA levels, real-time PCR; type: cell-based, human; conditions: RPMI8226 and MM1S cell lines, 24 hours
Protocol: as §3

[32] = test system: MM cell lines; assay: Cell cycle analysis, flow cytometry; type: cell-based, human; conditions: two of the three MM cell lines
Protocol: as §5, §6

## Cc1sc2c(c1C)C(c1ccc(Cl)cc1)=N[C@@H](CC(=O)OC(C)(C)C)c1nnc(C)n1-2 [JQ1]
[1]
  MYC levels: down-regulation of MYC

## Cc1sc2c(c1C)C(c1ccc(Cl)cc1)=N[C@@H](CC(=O)Nc1ccc(O)cc1)c1nnc(C)n1-2 [Formula 2, (S)-2-[4-(4-chlorophenyl)-2,3,9-trimethyl-6H-thieno[3,2-f][1,2,4]triazolo-[4,3-a][1,4]diazepin-6-yl]-N-(4-hydroxyphenyl)acetamide]
[2]
  cell viability: dose-dependent decrease in cell viability
[3]
  NFκB target genes expression: partial down-regulation of NFκB target genes
[4]
  cytostatic versus cytotoxic effect (% Annexin V positive cells): cytostatic effect
[5]; six DLBCL cell lines, 24 hours of treatment
  c-MYC mRNA levels: down-regulated in five of the six cell lines
[5]; three DLBCL cell lines, 1 hour of treatment
  c-MYC levels: down-regulation of c-MYC in two of three DLBCL cell lines
[6]
  c-MYC levels: down-regulation of c-MYC in a dose-dependent manner
[7]
  IC50: 69 nM
[8]
  IC50: 132 nM
[9]
  IC50: 1220 nM
[10]
  IC50: > 15000 nM
[11]
  IC50: 277 nM
[12]
  IC50: 1390 nM
[13]
  IC50: 255 nM
[14]
  IC50: 1220 nM
[15]
  IC50: 449 nM
[16]
  IC50: 189 nM
[17]
  IC50: 110 nM
[18]
  IC50: 2790 nM
[19]
  IC50: 59 nM
[20]
  IC50: 90 nM
[21]
  IC50: 607 nM
[22]
  IC50: 700 nM
[23]
  cell viability: dose-dependent decrease in cell viability
[24]
  effect on the cell cycle: induced a G1-arrest in a dose-dependent manner
[25]
  cell death: induces cell death only in a small percentage of the cell
[26]; seven very sensitive DLBCL cell lines
  IC50: < 300 nM
[26]; two DLBCL cell lines
  IC50: 600 to 1400 nM
[26]; all the DLBCL cell lines
  cell viability: dose-dependent decrease in cell viability
[27]; Homo sapiens
  IC50: 60 to 700 nM
[27]
  cell viability: reduction in cell viability in all the cell lines
[28]; Homo sapiens, VAL (DLBCL), MTT, 72 h, read-out: estimated IC50
  IC50: > 12700 nM
[28]; VAL, doses of up to 10 μM
  reduction in cell proliferation: over 40%
[29]; Homo sapiens
  IC50: 1200 to 2700 nM
[29]
  cell viability: dose-dependent decrease in cell viability
[30]
  cell death: did not show an important increase of cell death
[31]
  MYC mRNA levels: significant reduction of MYC mRNA levels in a dose-dependent manner; also recorded: down-regulation of c-MYC in a dose-dependent manner
[32]
  cell cycle analysis, S-phase: significant reduction of S-phase

From patent publication US20140018353A1, “METHOD OF TREATING B-CELL MALIGNANT CANCERS AND T-CELL MALIGNANT CANCERS USING THIENOTRIAZOLODIAZEPINE COMPOUNDS” (Oncoethix SA, priority 2012, published 2014)
